Values of other authors in patent US20250134829A1, “LOW-DOSE, STABLE-RELEASE TRANSDERMAL PREPARATION AND PATCH, AND METHOD FOR THEIR PRODUCTION” (PÉCSI TUDOMÁNYEGYETEM, priority 2022, published 2025).

Legend:
[1] = test system: capsaicin-sensitive sensory nerve endings; conditions: high dose (6-8%) of capsaicin locally
[2] = test system: patients suffering from low back pain; conditions: topical nonivamide treatment

SMILES | duration of disabling of the capsaicin-sensitive sensory nerve endings (desensitization) [1] | plasma level of the neuropeptide somatostatin [2]
COc1cc(CNC(=O)CCCC/C=C/C(C)C)ccc1O [capsaicin] | 2-3 months | –
CCCCCCCCC(=O)NCc1ccc(O)c(OC)c1 [nonivamide] | – | threefold increase
